# Measurements as given in article PMC8448677, “A novel assay based on pre-equilibrium titration curves for the determination of enzyme inhibitor binding kinetics” (European Biophysics Journal, 2021).
# Where two headings read alike, the source gives them in different places. Starred links: 1 amine or outer side, 2 acyl side, 3 side chain; linkers in the order of their positions; H or OH if unused. Positions of bridges follow the written chain, without caps; N, C: chain ends. Non-standard residues stand in square brackets, D forms with d. Residues, ends and D or L forms follow the SMILES beside them. TBMB = c1c(C[*:1])cc(C[*:3])cc1C[*:2]; NMeR = CN[C@@H](CCCNC(=N)N)C(=O)O; hArg = N=C(N)NCCCC[C@H](N)C(=O)O; Aze = O=C(O)[C@@H]1CCN1; Sar = CNCC(=O)O
# Target: T1, Human PKal (plasma kallikrein) (Homo sapiens, UniProt P03952)
# T1 construct: purchased Molecular Innovations HPKA
# T1 sequence (P03952 391-638 limits assumed): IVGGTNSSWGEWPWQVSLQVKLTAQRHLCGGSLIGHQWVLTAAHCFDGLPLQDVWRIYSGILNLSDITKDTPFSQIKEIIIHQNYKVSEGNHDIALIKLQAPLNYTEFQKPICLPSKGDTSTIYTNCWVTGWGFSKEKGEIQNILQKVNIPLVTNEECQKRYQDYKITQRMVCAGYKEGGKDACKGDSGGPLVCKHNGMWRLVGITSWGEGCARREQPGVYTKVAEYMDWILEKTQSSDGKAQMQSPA
# T1 sequence (P03952 20-390 partner limits assumed): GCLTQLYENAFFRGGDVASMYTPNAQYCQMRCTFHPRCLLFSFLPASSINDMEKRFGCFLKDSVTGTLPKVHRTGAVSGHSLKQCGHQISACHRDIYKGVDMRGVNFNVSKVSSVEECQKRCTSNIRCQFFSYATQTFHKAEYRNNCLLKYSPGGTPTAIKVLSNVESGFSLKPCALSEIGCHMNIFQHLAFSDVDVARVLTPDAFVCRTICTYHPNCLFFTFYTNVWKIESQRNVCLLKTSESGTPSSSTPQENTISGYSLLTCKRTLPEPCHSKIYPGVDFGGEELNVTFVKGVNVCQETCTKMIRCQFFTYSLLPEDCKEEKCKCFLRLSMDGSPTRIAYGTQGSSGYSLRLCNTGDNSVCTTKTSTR
# Experiment: Pre-equilibrium titration curve inhibition assay of plasma kallikrein (fluorogenic substrate H-Pro-Phe-Arg-AMC, global fit with Eq. 7)
# Type: biochemical
# Conditions: Ki = koff/kon from pre-equilibrium curves, 25 °C, pH 7.5, PKal 1 nM (0.25 nM for 4b), mean ± SD of at least 3 independent measurements
# Experimental: The TBMB-based bicyclic peptide inhibitors of PKal used in this study are listed in Table 1, some of which have been described previously (Teufel et al. [2018]). Experiments were performed at 25 °C in 20 mM Tris–HCl, 150 mM NaCl, 1 mM EDTA, 0.1% PEG-6000, 0.1% Triton X-100, pH 7.5. Human PKal (Molecular Innovations, cat. HPKA, typical nominal concentration 1 nM for all peptides except 0.25 nM for peptide 4b) was pre-incubated in 96-well plates with different concentrations of the tested peptide (typically a serial twofold dilution plus a control with no peptide) in a reaction volume of 90 µL. At different timepoints, the fluorogenic substrate H-Pro-Phe-Arg-AMC (Bachem, cat. I-1295.0050, 10 µL, 20 µM final) was added to the relevant wells, and the increase in fluorescence at 480 nm (with excitation at 360 nm) was recorded using a Spectramax M2e plate reader (Molecular Devices). Initial rates of substrate hydrolysis were obtained by linear fit of the raw fluorescence vs. time traces. In addition, fluorescence was recorded ensuring that no more than 10% of the substrate were hydrolyzed, and for periods of time (typically 30–60 s) short enough to obtain linear traces. The data were plotted as the initial rate of substrate hydrolysis vs. peptide concentration for the different times of incubation prior to substrate addition (as shown in Fig. 3) and analyzed using Eq. 7.
# To compute unique values of kon and koff, data sets such as those of Fig. 3 must be analyzed “globally”, i.e., considering all pre-equilibrium inhibition curves as a unique data set, as allowed by modern nonlinear regression analysis software’s. In this study, we used GraphPad Prism ver. 5.02 (GraphPad Software Inc., La Jolla, CA) applying equal weighting (i.e., performing minimization based on absolute distances squared), and we invite the reader to consult the software’s user’s manual for a detailed description of how global fitting of such data sets can be performed (https://cdn.graphpad.com/faq/2/file/Prism_v5_Regression_Guide.pdf). One point to highlight is that the parameters kon, koff and E0 should be “shared”, to employ the terminology used in GraphPad Prism, i.e., that one unique value of these parameters is used to fit the data. […] As discussed previously for the analysis of data obtained under equilibrium, i.e., using Eq. 1 (see Teufel et al. [2018]), the term E0 in Eq. 7 can be treated as a shared but adjustable parameter or, as here, fixed to its known value. The terms v0, kon and koff, by contrast, always need to be treated as adjustable parameters. Finally, the knowledge of the kinetic parameters kon and koff enables calculation of the equilibrium inhibition constant Ki (Ki = koff/kon).
# In the case of H-Pro-Phe-Arg-AMC, however, the Km for human PKal is large (Teufel et al. [2018]) and experiments were performed under conditions where [S] < < Km. Therefore, the values for kon, koff and Ki reported here can be considered as representing actual values.
compound,measurement,setting,value
CC(=O)N[C@H]1CSCc2cc3cc(c2)CSC[C@H](NC(=O)[C@H](Cc2c[nH]c4ccccc24)NC(=O)[C@@H]2CCCN2C(=O)[C@H](CC(N)=O)NC(=O)[C@H](Cc2c[nH]c4ccccc24)NC(=O)[C@H]([C@@H](C)O)NC(=O)[C@H](CC(N)=O)NC1=O)C(=O)N1CCC[C@H]1C(=O)N[C@@H](Cc1c[nH]c2ccccc12)C(=O)N[C@@H](CC(=O)O)C(=O)N[C@@H](C)C(=O)N1CCC[C@H]1C(=O)N[C@@H](CC(C)C)C(=O)N[C@H](C(=O)N[C@@H](C)C(=O)N(C)CC(=O)N(C)CC(=O)N(C)CC(=O)N[C@H](CCCNC(=N)N)C(=O)N[C@H](CCCNC(=N)N)C(N)=O)CSC3 [Peptide 1b] (Ac-CNTWNPWCPWDAPLCA[Sar][Sar][Sar][dR][dR]-NH2; linker 1-8-15 via TBMB),Ki,read-out: Ki,1.8 ± 0.2 nM
CC(=O)N[C@H]1CSCc2cc3cc(c2)CSC[C@H](NC(=O)[C@H](CCCNC(=N)N)NC(=O)[C@H](C)NC(=O)[C@@H]2CCCN2C(=O)[C@H](Cc2c[nH]c4ccccc24)NC(=O)[C@H](CO)NC1=O)C(=O)N[C@@H](CC(C)C)C(=O)N[C@@H](Cc1c[nH]cn1)C(=O)N[C@@H](CCC(N)=O)C(=O)N[C@@H](CC(=O)O)C(=O)N[C@@H](CC(C)C)C(=O)N[C@H](C(N)=O)CSC3 [Peptide 2b] (Ac-CSWPARCLHQDLC-NH2; linker 1-7-13 via TBMB),Ki,read-out: Ki,0.1 ± 0.02 nM
CC(=O)N[C@H]1CSCc2cc3cc(c2)CSC[C@H](NC(=O)[C@H](CCCNC(=N)N)NC(=O)[C@H](Cc2ccc(O)cc2)NC(=O)[C@@H]2CCCN2C(=O)[C@H](Cc2ccccc2)NC(=O)[C@H](CO)NC1=O)C(=O)N[C@@H](CC(C)C)C(=O)N[C@@H](Cc1c[nH]cn1)C(=O)N[C@@H](CCC(N)=O)C(=O)N[C@@H](CC(=O)O)C(=O)N[C@@H](CC(C)C)C(=O)N[C@H](C(N)=O)CSC3 [Peptide 2c] (Ac-CSFPYRCLHQDLC-NH2; linker 1-7-13 via TBMB),Ki,read-out: Ki,0.34 ± 0.04 nM
CC(=O)N[C@H]1CSCc2cc3cc(c2)CSC[C@H](NC(=O)[C@H](CCCCNC(=N)N)NC(=O)[C@H](Cc2ccc(O)cc2)NC(=O)[C@@H]2CCN2C(=O)[C@H](Cc2ccccc2)NC(=O)[C@H](CO)NC1=O)C(=O)N[C@@H](C)CN[C@@H](Cc1c[nH]cn1)C(=O)N[C@@H](CCC(N)=O)C(=O)N[C@@H](CC(=O)O)C(=O)N[C@@H](CC(C)C)C(=O)N[C@H](C(N)=O)CSC3 [Peptide 2d],Ki,read-out: Ki,0.22 ± 0.04 nM
CC[C@H](C)[C@@H]1NC(=O)[C@H](CC(=O)O)NC(=O)[C@@H]2CCCN2C(=O)[C@H](Cc2ccc(O)cc2)NC(=O)[C@H](Cc2ccc(O)cc2)NC(=O)[C@H](C(C)C)NC(=O)[C@@H]2CSCc3cc(cc(c3)CSC[C@@H](C(=O)N[C@@H](C)C(=O)N(C)CC(=O)N(C)CC(=O)N(C)CC(=O)N[C@H](CCCNC(=N)N)C(=O)N[C@H](CCCNC(=N)N)C(N)=O)NC1=O)CSC[C@H](NC(C)=O)C(=O)N[C@@H](CO)C(=O)N[C@@H](Cc1ccccc1)C(=O)N1CC[C@H]1C(=O)N[C@@H](Cc1ccc(O)cc1)C(=O)N[C@@H](CCCCNC(=N)N)C(=O)N2 [Peptide 4b] (Ac-CSF[Aze]Y[hArg]CVYYPDICA[Sar][Sar][Sar][dR][dR]-NH2; linker 1-7-14 via TBMB),Ki,Ki,0.14 ± 0.02 nM
CC(=O)N[C@H]1CSCc2cc3cc(c2)CSC[C@H](NC(=O)[C@H](CCCNC(=N)N)NC(=O)[C@H](Cc2ccc(O)cc2)NC(=O)[C@@H]2CCCN2C(=O)[C@H](Cc2ccccc2)NC(=O)[C@H](CO)NC1=O)C(=O)N[C@@H](CC(C)C)C(=O)N[C@@H](Cc1c[nH]cn1)C(=O)N[C@@H](CCC(N)=O)C(=O)N[C@@H](CC(=O)O)C(=O)N[C@@H](CC(C)C)C(=O)N[C@H](C(N)=O)CSC3 [Peptide 5a] (Ac-CSFPYRCLHQDLC-NH2; linker 1-7-13 via TBMB),Ki,read-out: Ki,0.36 ± 0.06 nM
CC(=O)N[C@H]1CSCc2cc3cc(c2)CSC[C@H](NC(=O)[C@H](CCCCNC(=N)N)NC(=O)[C@H](Cc2ccc(O)cc2)NC(=O)[C@@H]2CCCN2C(=O)[C@H](Cc2ccccc2)NC(=O)[C@H](CO)NC1=O)C(=O)N[C@@H](CC(C)C)C(=O)N[C@@H](Cc1c[nH]cn1)C(=O)N[C@@H](CCC(N)=O)C(=O)N[C@@H](CC(=O)O)C(=O)N[C@@H](CC(C)C)C(=O)N[C@H](C(N)=O)CSC3 [Peptide 5b] (Ac-CSFPY[hArg]CLHQDLC-NH2; linker 1-7-13 via TBMB),Ki,read-out: Ki,0.53 ± 0.07 nM
CC(=O)N[C@H]1CSCc2cc3cc(c2)CSC[C@H](NC(=O)[C@H](CCCCNC(=N)N)NC(=O)[C@H](Cc2ccc(O)cc2)NC(=O)[C@@H]2CCN2C(=O)[C@H](Cc2ccccc2)NC(=O)[C@H](CO)NC1=O)C(=O)N[C@@H](CC(C)C)C(=O)N[C@@H](Cc1c[nH]cn1)C(=O)N[C@@H](CCC(N)=O)C(=O)N[C@@H](CC(=O)O)C(=O)N[C@@H](CC(C)C)C(=O)N[C@H](C(N)=O)CSC3 [Peptide 5c] (Ac-CSF[Aze]Y[hArg]CLHQDLC-NH2; linker 1-7-13 via TBMB),Ki,read-out: Ki,0.061 ± 0.027 nM
CC(=O)N[C@H]1CSCc2cc3cc(c2)CSC[C@H](NC(=O)[C@H](CCCNC(=N)N)N(C)C(=O)[C@H](Cc2ccc(O)cc2)NC(=O)[C@@H]2CCN2C(=O)[C@H](Cc2ccccc2)NC(=O)[C@H](CO)NC1=O)C(=O)N[C@@H](CC(C)C)C(=O)N[C@@H](Cc1c[nH]cn1)C(=O)N[C@@H](CCC(N)=O)C(=O)N[C@@H](CC(=O)O)C(=O)N[C@@H](CC(C)C)C(=O)N[C@H](C(N)=O)CSC3 [Peptide 5d] (Ac-CSF[Aze]Y[NMeR]CLHQDLC-NH2; linker 1-7-13 via TBMB),Ki,read-out: Ki,0.55 ± 0.06 nM
